Patent publication US11225474B2, “Crystalline salt forms of 3-(1,2,4-triazolo[4,3-a]pyridine-3-ylethynyl)-4-methyl-N-(4-((4-methylpiperazin-1-yl)methyl)-3-trifluoromethylphenyl)benzamide for medical application” (priority 2016, dated 2022)

Experiments:
physchem = assay type: physicochemical; conditions: deionized water, RT
[1] = Hygroscopicity by gravimetric moisture absorption; assay type: physicochemical; conditions: for water absorbed (hygroscopicity): relative air humidity of 90%
Excerpt: Samples were also studied using the following methods: polarization microscopy (Leica DMRB Polarized Microscope, resolution of 1600×1200)—to confirm crystallinity, ion chromatography—to confirm anion and cation stoichiometric proportion, differential scanning calorimetry (DSC) and thermogravimetric analysis (TGA)—to confirm composition and study of temperature stability of samples; ^1H NMR (500 MHz Bruker AVANCE 500.13 MHz, solvent DMSO-d6)—to confirm structure, assess purity and content of organic solvents; gravimetric moisture absorption—to assess hygroscopicity. DSC was carried out using Mettler 822e DSC apparatus. The measuring system was calibrated according to ISO 11357-1 standard based on standard substances phase changes (C6H12; Hg; benzoic acid; Ga; KNO3; In; Sn; Bi; CsCl; purity grade 99.99%). Temperature calibration regular error (determined based on In) is 0.1°. Samples were tested in standard aluminum cells in the artificial air flow at a temperature range of 30-300° C. with heating speed of 10°/min. TG measurements were taken using Mettler 851e SDTA/TGA TG analyzer. The apparatus was calibrated using standard substances melting points (Ag; Al; Bi; In; Sn; purity grade of 99.99%). Weighing error is NMT 0.1% (determined using CaC2O4·2H2O standard). The test was carried out in a standard open aluminum container in the artificial air flow at a temperature range of 30-150° C. with heating speed of 10°/min. To avoid dehydration, the material was not exposed to mechanical treatment before taking measurements.

[2] = Stability of polymorph modifications, suspending in acetone for 6 days; assay type: physicochemical; conditions: for crystalline structure after suspending in acetone: 6 days; for Crystallinity in 6 days: suspending in acetone for 6 days, room temperature
Description: Crystallinity of all samples obtained was studied using the method of X-ray powder diffraction (to study the crystallinity structure). Diffraction patterns were obtained at a temperature of 25° C. […] Survey step 0.02° 2θ, angle range 3-45° 2θ. Diffraction patterns obtained were studied in detail using X'Pert HighScore Plus software package.

[3] = for pH: equilibrium solubility test in water; for Crystallinity in 24 h: solid in water, equilibrium solubility test
[4] = Stability, 7 days at T = 60° C.; assay type: physicochemical; conditions: for Crystallinity in 7 days / Relative peak area, in 7 days: 7 days at T = 60° C.; for Relative peak area, initial: before storage; for content of impurities: kept seven days at 60° C.
in vivo = assay: in vivo; parameters: species or system C57BL/6 line mice
Description: FIGS. 52A-52B. […] The mean values were determined for each time point on the basis of the individual data obtained from three animals.
The results of the study are given in FIG. 52 and in Tables 14 and 15.

[5] = Dissolution kinetics (USP Apparatus 1 Basket Method); assay type: physicochemical; conditions: 780 minutes after beginning; medium distilled water
Description: During further studies of the polymorphous modifications of the methanesulfonic acid salt of 3-(1,2,4-triazolo[4,3-a]pyridine-3-ylethynyl)-4-methyl-N-(4-((4-methylpiperazine-1-yl)methyl)-3-trifluoromethylphenyl)benzamide, the kinetics of dissolution of the free base and the two methanesulfonic acid salt form polymorphous modifications was studied. Dissolution kinetics studies were performed using USP Apparatus 1 Basket Method (USP40, General Chapter <711>. Dissolution), dissolution media volume—700 mL, temperature—37±1° C. paddle stirrers' rotation rate—100 rpm. The test sample dissolution rate was calculated as an average of six repeats. Distilled water was used as the dissolution medium for the polymorphous modifications of 3-(1,2,4-triazolo[4,3-a]pyridine-3-ylethynyl)-4-methyl-N-(4-((4-methylpiperazine-1-yl)methyl)-3-trifluoromethylphenyl)benzamide methanesulfonic acid salt and, and a solution of 12.2 mL of methanesulfonic acid in 500 mL of water was used as the dissolution medium for the free base. Test portions containing 100 mg of 3-(1,2,4-triazolo[4,3-a]pyridine-3-ylethynyl)-4-methyl-N-(4-((4-methylpiperazine-1-yl)methyl)-3-trifluoromethylphenyl)benzamide or 118 mg of 3-(1,2,4-triazolo[4,3-a]pyridine-3-ylethynyl)-4-methyl-N-(4-((4-methylpiperazine-1-yl)methyl)-3-trifluoromethylphenyl)benzamide methanesulfonic acid salt (100 mg calculated as free base) were used for dissolution. In 780 minutes (13 hours) after the beginning of the test, pH of prepared solutions was measured.

[6] = mesylate polymorphous modification I 59 mg/kg (50 mg/kg as free base), single oral, C57BL/6 mice

Row | SMILES | crystalline structure after suspending in acetone [2] | pH [3] | Crystallinity in 24 h [3] | water absorbed (hygroscopicity) [1] | Crystallinity in 7 days [4] | Relative peak area, in 7 days [4] [%] | Relative peak area, initial [4] [%] | content of impurities [4] | also measured
1 | Cc1ccc(C(=O)Nc2ccc(CN3CCN(C)CC3)c(C(F)(F)F)c2)cc1C#Cc1nnc2ccccn12.Cl [HAL-G-196-2] | – | – | – | – | – | – | – | – | Apparent solubility (physchem): >29 mg/mL; sample hygroscopicity (water sorption and desorption) ([1]; gravimetric moisture absorption): desorbed and sorbed water, the volume of which corresponded to a dihydrate
2 | Cc1ccc(C(=O)Nc2ccc(CN3CCN(C)CC3)c(C(F)(F)F)c2)cc1C#Cc1nnc2ccccn12.Cl [HAL-G-196-3] | remained unchanged | 4.0 | Amorphous | less than 8 mass percent | Form II | 99.9 | 99.9 | remained constant | Crystallinity in 6 days [2]: Form II
3 | Br.Cc1ccc(C(=O)Nc2ccc(CN3CCN(C)CC3)c(C(F)(F)F)c2)cc1C#Cc1nnc2ccccn12 [HAL-G-196-7] | – | – | – | more than ten mass percent of water and thawed in the air | – | – | – | – | –
4 | Cc1ccc(C(=O)Nc2ccc(CN3CCN(C)CC3)c(C(F)(F)F)c2)cc1C#Cc1nnc2ccccn12.Cc1ccc(S(=O)(=O)O)cc1 [HAL-G-196-24] | remained unchanged | 3.5 | Cryst. | less than four mass percent of water | Cryst. | 99.9 | 99.8 | remained constant | –
5 | Cc1ccc(C(=O)Nc2ccc(CN3CCN(C)CC3)c(C(F)(F)F)c2)cc1C#Cc1nnc2ccccn12.O=C(O)/C=C/C(=O)O [HAL-G-196-29] | remained unchanged | 4.2 | Cryst. | less than four mass percent of water | Cryst. | 99.9 | 99.8 | remained constant | Crystallinity in 6 days [2]: Cryst.
6 | CS(=O)(=O)O.Cc1ccc(C(=O)Nc2ccc(CN3CCN(C)CC3)c(C(F)(F)F)c2)cc1C#Cc1nnc2ccccn12 [methanesulfonic acid salt (polymorphous modification I)] [3-(1,2,4-triazolo[4,3-a]pyridine-3-ylethynyl)-4-methyl-N-(4-((4-methylpiperazin-1-yl)methyl)-3-trifluoromethylphenyl)benzamide mono methanesulfonic acid salt, polymorphous modification I] | – | – | – | – | – | – | – | – | AUC0-24 (in vivo; [6]): 11,933 ngh/mL; AUC0-24/24 (in vivo; [6]): 497 ng/mL; AUC0-∞ (in vivo; [6]): 12,103 ng · h/mL; Cmax (in vivo; [6]): 1,099 ng/mL; T1/2 (in vivo; [6]): 3.8 h; Tmax (in vivo; [6]): 4 h; pH of prepared solution [5]: 5.04
7 | CS(=O)(=O)O.Cc1ccc(C(=O)Nc2ccc(CN3CCN(C)CC3)c(C(F)(F)F)c2)cc1C#Cc1nnc2ccccn12 [methanesulfonic acid salt (polymorphous modification II)] [3-(1,2,4-triazolo[4,3-a]pyridine-3-ylethynyl)-4-methyl-N-(4-((4-methylpiperazin-1-yl)methyl)-3-trifluoromethylphenyl)benzamide mono methanesulfonic acid salt, polymorphous modification II] | – | – | – | – | – | – | – | – | differences in all pharmacokinetic parameters studied versus polymorphous modification I (in vivo; mouse, in vivo): No statistically true differences in all pharmacokinetic parameters studied were revealed after administration of the salt form as polymorphous modification II (p < 0.05).; pH of prepared solution [5]: 4.95
